This note sets out measurements from paper PMC11838736 (2025).

The test relates to Doxorubicin aptamer (DNA, aptamer) ACCATCTGTGTAAGGGGTAAGGGGTGGT
Briefly: electrochemical aptamer-based sensor, square-wave voltammetry (KDM), Hill fit. To be noted: 37 °C; in serum; apparent; immobilised aptamer; 8 devices.

Take `COc1cccc2c1C(=O)c1c(O)c3c(c(O)c1C2=O)C[C@@](O)(C(=O)CO)C[C@@H]3O[C@H]1C[C@H](N)[C@H](O)[C@H](C)O1`: the Kd amounted to 5 µM.
